{
  "source": "patent US10993944B2",
  "about": "“Methods and compositions for the treatment of hair loss” (Aneira Pharma, Inc., priority 2019, dated 2021)",
  "origin": "cited, not measured here",
  "key": {"[1]": {"test_system": "elevated intraocular pressure", "conditions": "glaucomatous monkey eyes; Gagliuso 2004"}, "[2]": {"test_system": "elevated intraocular pressure", "conditions": "human glaucoma patients non-responsive to latanoprost; Gandolfi 2003"}, "[3]": {"target": "human recombinant FP receptor (Homo sapiens, UniProt P43088)", "sequence (P43088 whole entry)": "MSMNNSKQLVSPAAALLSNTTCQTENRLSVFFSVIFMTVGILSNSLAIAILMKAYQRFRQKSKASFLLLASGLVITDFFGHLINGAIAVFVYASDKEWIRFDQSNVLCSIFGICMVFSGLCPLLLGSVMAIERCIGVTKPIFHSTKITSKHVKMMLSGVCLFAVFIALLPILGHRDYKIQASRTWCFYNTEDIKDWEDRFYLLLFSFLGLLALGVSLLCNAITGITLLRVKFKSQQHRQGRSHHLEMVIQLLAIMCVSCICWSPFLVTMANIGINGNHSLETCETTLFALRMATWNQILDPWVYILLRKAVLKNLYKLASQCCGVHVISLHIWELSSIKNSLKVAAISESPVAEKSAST"}, "[4]": {"experiment": "not given", "remark": "listed apart in the source"}, "hair growth [5]": {"test_system": "hair growth", "conditions": "McCarey 2004"}, "[6]": {"test_system": "dihydrotestosterone (DHT)", "conditions": "oral; including prostate gland and scalp"}, "hair growth [7]": {"test_system": "hair growth"}},
  "note": "Where two headings read alike, the source gives them in different places.",
  "data": [
    {"compound": "CCNC(=O)CCC/C=C\\C[C@@H]1[C@@H](/C=C/[C@@H](O)CCc2ccccc2)[C@H](O)C[C@@H]1O", "note": "[Bimatoprost]", "values": [
      {"measurement": "effect on elevated intraocular pressure in combination with latanoprost", "setting": "[1]", "result": "additive to that of latanoprost"},
      {"measurement": "response in reducing elevated intraocular pressure", "setting": "[2]", "result": "found responsive to bimatoprost"}
    ]},
    {"compound": "O=C(O)CCC/C=C\\C[C@@H]1[C@@H](CC[C@@H](O)CCc2ccccc2)[C@H](O)C[C@@H]1O", "note": "[Latanoprost free acid, Latanoprost acid]", "values": [
      {"measurement": "potency compared to PGF2α", "setting": "[3]; human FP receptors", "result": "twice the potency of PGF2α"},
      {"measurement": "potency as an FP receptor ligand compared to latanoprost", "setting": "[3]; human recombinant FP receptor", "result": "two-hundred times more potent than latanoprost"}
    ]},
    {"compound": "CC(C)OC(=O)CCC/C=C\\C[C@@H]1[C@@H](CC[C@@H](O)CCc2ccccc2)[C@H](O)C[C@@H]1O", "note": "[Latanoprost, isopropyl ester of 17-phenyl-13,14-dihydro prostaglandin F2a]", "values": [
      {"measurement": "fat solubility compared to bimatoprost", "result": "more fat soluble than bimatoprost"},
      {"measurement": "solubility in water (words)", "result": "poorly dissolved in water"},
      {"measurement": "solubility in propylene glycol, methanol, ethanol and 2-propanol", "setting": "highest concentration (5%)", "result": "Sufficient amount of solubility can be obtained even at the highest concentration (5%)"},
      {"measurement": "solubility in water (words)", "setting": "listed as latanoprost", "result": "poor solubility in water"},
      {"measurement": "stability in acidic or basic aqueous solutions", "setting": "[4]; acidic or basic aqueous solutions", "result": "no more than 48 hours"},
      {"measurement": "stability in neutral aqueous solutions", "setting": "[4]; neutral aqueous solutions, room temperature", "result": "up to one month"}
    ]},
    {"compound": "CCCCCCCC(=O)CC[C@@H]1[C@@H](C/C=C\\CCCC(=O)OC(C)C)[C@@H](O)C[C@H]1O", "note": "[Uenoprostone isopropyl ester, Unoprostone isopropyl ester]", "values": [
      {"measurement": "hair growth", "setting": "hair growth [5]", "result": "cause no hair growth and in fact may inhibit hair growth"}
    ]},
    {"compound": "CC(C)(C)NC(=O)[C@H]1CC[C@H]2[C@@H]3CC[C@H]4NC(=O)C=C[C@]4(C)[C@H]3CC[C@]12C", "note": "[finasteride, (1S,3aS,3bS,5aR,9aR,9bS,11aS)—N-tert-butyl-9a,11a-dimethyl-7-oxo-1,2,3,3a,3b,4,5,5a,6,9b,10,11-dodecahydroindeno[5,4-f]quinoline-1-carboxamide]", "values": [
      {"measurement": "decrease of production of dihydrotestosterone (DHT)", "setting": "[6]", "result": "about 70%"}
    ]},
    {"compound": "Nc1cc(N2CCCCC2)nc(N)[n+]1OS(=O)(=O)[O-]", "note": "[minoxidil sulphate]", "values": [
      {"measurement": "potency as hair growth agent compared to minoxidil", "setting": "hair growth [7]", "result": "much more potent hair growth agent"}
    ]},
    {"compound": "CCCCCCCC(=O)CC[C@@H]1[C@@H](C/C=C\\CCCC(=O)O)[C@@H](O)C[C@H]1O", "note": "[uenoprostone free acid]", "values": [
      {"measurement": "hair growth", "setting": "hair growth [5]", "result": "cause no hair growth and in fact may inhibit hair growth"}
    ]}
  ]
}
